Measurements reported in patent US11306095B2 (EAST CHINA UNIVERSITY OF SCIENCE AND TECHNOLOGY, priority 2015, dated 2022).
Values after ≈ are worked out from the molar mass of the structure shown.

Legend:
[1] = system: H1975 cells (EGFR L858R/T790M); test: Inhibitory activity on cell proliferation, H1975; format: cell-based; details: Homo sapiens, NCI-H1975; H1975, 72 hours; read-out: Inhibitory activity on proliferation of cells (IC50, μM) H1975
Description: (§1) Cell proliferation activity was assessed by MTS assay. Cells were exposed to processing conditions for 72 hours and the number of cells used in each experiment for each cell line was adjusted based on absorbance values (absorbance values at 490 nm, 1.3-2.2). Six concentration gradients (0.1 nM-10 μM) were set for the compounds to be tested, wherein at least 6 sets of parallel controls for each concentration were used.
(§2) H1975, A431 cells were cultured in corresponding media, and cells were passaged at least twice after resuscitation and then used for experiments. Cells at Log phase were trypsinized and resuspended in culture medium. H1975 (1000 cells per well), A431 (2000 cells per well) were seeded in 96-well plates in a volume of 100 μL; and 6 sets of parallel controls and 7 columns were set. The plate was placed in a 37° C. 5% CO2 incubator overnight. Compounds were dissolved in DMSO to a concentration of […], and then the concentration was gradually diluted to 10 μM, 1 μM, 0.1 μM, 0.01 μM, 0.001 μM, 0.0001 μM per liter, respectively. 2 μL of the compound solution was added to 998 μL of medium, and the mixture was thoroughly mixed. 100 μL of the mixture was added to a 96-well plate. […] After culturing for 68 hours, 20 μL of MTT (5 mg/mL) was added. After 4 hours, the supernatant was discarded and 150 μL of DMSO was added. After shaking for 10 minutes, the plate was read with Synergy HT (Bio TeK) (OD490). Data were calculated using GraphPad Prism version 4.0 and IC50 values were obtained using a non-linear regression model of dose response curve.

[2] = system: A431 cells (EGFR wild type); test: Inhibitory activity on cell proliferation, A431; format: cell-based; details: Homo sapiens, A-431; A431, 72 hours; read-out: Inhibitory activity on proliferation of cells (IC50, μM) A431
Description: as §1, §2

EGFR-L858R/T790M = target: T1, EGFR-L858R/T790M (Homo sapiens, UniProt P00533, L858R/T790M); test: Kinase activity test (FRET), EGFR T790M/L858R; format: biochemical; details: EGFR T790M/L858R; read-out: Inhibitory activity of EGFR on kinase (IC50, nM) T790M/L858R
T1 construct: purchased Invitrogen PV4879
Description: (§3) EGFR-TK catalyses transfer of one phosphate group of adenosine triphosphate (ATP) to polypeptide substrate, poly(Glu, Tyr)4:1, which is labeled with two fluorescent groups coumarin and fluorescein.
(§4) 2.5 μL of Test Compounds, 5 μL Kinase/Peptide Substrate Mixture, 2.5 μL ATP Solution were added into a 384-well plate, and the 10 μL of reaction system was shaken for 30 s and incubated at room temperature for 1 h. 5 μL of Development Solution was added and the 15 μL of reaction system was shaken for 30 s, and incubated at room temperature for 1 h. […] The inhibitory rates of the compounds at 7 concentration gradients were determined and the IC50 value for each compound was calculated by Origin 8.0 fitting curve.
(§5) 10 concentration gradients from 5.1×10^−11 mol/L to 1.0×10^−6 mol/L were set for all compounds to be tested.
(§6) Compounds were diluted in DMSO for three times from 5.1×10^−9 M to 1×10^−4 M. 4 μL of the compound was dissolved in 96 μL of water to obtain a 4× compound solution. […] The 10 μL kinase reaction consisted of 2.5 μL compound solution, 5 μL kinase/peptide mix, 2.5 μL ATP solution. […] 5 μL of phosphorylated peptide solution, instead of the kinase/peptide mixture, was used as a 100% phosphorylation control. […] The plates were thoroughly mixed and incubated at room temperature for 1.5 hours. 5 μL of Development Solution was added into each well and then incubated for another 1 hour at room temperature, unphosphorylated peptides were cleaved during this period. Finally, 5 μL Stop Reagent was added to quench the reaction. The plates were measured with EnVision Multilabel Reader (Perkin Elmer). The experimental data were calculated using GraphPad Prism version 4.0. Each experiment was repeated more than 3 times.

Wild type EGFR = target: T2, Wild type EGFR (Homo sapiens, UniProt P00533); test: Kinase activity test (FRET), wild type EGFR; format: biochemical; details: wild type EGFR; read-out: Inhibitory activity of EGFR on kinase (IC50, nM) WT
T2 construct: purchased Invitrogen PV3872
Description: as §3, §4, §5, §6

[3] = Determination of solubility in water (PBS 20 mM, pH 6.8); format: physicochemical; details: PBS buffer, aqueous buffer, thermodynamic from solid; pH 6.8, 20 mM PBS; read-out: Solubility (pH 6.8, g/mL)
Description: The suspension was filtered through a 0.22 μm PVDF filter, and then diluted to an appropriate concentration with methanol (v=50%) and PBS (v=50%), and the absorbance was measured by a UV spectrophotometer. About 3 mg of compound was accurately weighed, and methanol was added for preparing a stock solution of 1 mg/mL. The above stock solution was taken and prepared into a solution at concentrations of 0.05, 0.04, 0.03, 0.02 and 0.01 mg/mL, respectively, PBS solution (v=50%) was added and the absorbance value was measured. Concentration c (mg/mL) as horizontal ordinate vs absorbance A as longitudinal coordinate was plotted, and a line was fitted for obtaining a standard curve (correlation coefficient greater than 0.998). The solubility of a compound in water was calculated from the standard curve.

T2 sequence (P00533 25-1210): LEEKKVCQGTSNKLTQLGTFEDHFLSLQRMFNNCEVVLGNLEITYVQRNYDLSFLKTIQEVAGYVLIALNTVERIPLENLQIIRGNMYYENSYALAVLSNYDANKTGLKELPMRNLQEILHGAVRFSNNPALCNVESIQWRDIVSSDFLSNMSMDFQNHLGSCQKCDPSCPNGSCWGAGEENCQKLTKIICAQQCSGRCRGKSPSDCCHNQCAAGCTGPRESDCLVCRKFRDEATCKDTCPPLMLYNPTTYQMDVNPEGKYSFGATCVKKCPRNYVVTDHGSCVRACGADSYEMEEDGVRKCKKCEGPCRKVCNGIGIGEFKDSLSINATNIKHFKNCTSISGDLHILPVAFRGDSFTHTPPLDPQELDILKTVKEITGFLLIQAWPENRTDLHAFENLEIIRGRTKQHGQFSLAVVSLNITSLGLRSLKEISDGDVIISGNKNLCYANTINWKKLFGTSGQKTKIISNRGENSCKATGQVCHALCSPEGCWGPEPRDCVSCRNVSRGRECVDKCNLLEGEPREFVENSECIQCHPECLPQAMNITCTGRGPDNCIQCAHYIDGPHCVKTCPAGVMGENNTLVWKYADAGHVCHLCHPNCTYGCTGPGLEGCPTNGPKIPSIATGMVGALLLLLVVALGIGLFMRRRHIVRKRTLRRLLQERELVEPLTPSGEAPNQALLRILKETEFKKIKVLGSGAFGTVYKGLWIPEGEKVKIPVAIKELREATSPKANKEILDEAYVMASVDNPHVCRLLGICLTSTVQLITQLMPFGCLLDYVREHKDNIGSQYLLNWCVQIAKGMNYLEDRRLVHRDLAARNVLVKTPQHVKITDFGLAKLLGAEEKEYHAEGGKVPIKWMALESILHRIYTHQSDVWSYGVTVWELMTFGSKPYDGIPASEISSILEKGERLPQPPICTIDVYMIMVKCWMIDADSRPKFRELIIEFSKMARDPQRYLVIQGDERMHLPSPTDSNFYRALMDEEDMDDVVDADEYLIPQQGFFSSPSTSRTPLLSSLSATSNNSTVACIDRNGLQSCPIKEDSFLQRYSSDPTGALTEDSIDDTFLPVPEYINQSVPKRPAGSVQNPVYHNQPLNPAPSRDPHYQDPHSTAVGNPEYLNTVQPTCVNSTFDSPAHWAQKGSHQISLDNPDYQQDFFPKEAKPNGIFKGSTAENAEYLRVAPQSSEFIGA
T1 sequence (P00533 25-1210 T790M/L858R): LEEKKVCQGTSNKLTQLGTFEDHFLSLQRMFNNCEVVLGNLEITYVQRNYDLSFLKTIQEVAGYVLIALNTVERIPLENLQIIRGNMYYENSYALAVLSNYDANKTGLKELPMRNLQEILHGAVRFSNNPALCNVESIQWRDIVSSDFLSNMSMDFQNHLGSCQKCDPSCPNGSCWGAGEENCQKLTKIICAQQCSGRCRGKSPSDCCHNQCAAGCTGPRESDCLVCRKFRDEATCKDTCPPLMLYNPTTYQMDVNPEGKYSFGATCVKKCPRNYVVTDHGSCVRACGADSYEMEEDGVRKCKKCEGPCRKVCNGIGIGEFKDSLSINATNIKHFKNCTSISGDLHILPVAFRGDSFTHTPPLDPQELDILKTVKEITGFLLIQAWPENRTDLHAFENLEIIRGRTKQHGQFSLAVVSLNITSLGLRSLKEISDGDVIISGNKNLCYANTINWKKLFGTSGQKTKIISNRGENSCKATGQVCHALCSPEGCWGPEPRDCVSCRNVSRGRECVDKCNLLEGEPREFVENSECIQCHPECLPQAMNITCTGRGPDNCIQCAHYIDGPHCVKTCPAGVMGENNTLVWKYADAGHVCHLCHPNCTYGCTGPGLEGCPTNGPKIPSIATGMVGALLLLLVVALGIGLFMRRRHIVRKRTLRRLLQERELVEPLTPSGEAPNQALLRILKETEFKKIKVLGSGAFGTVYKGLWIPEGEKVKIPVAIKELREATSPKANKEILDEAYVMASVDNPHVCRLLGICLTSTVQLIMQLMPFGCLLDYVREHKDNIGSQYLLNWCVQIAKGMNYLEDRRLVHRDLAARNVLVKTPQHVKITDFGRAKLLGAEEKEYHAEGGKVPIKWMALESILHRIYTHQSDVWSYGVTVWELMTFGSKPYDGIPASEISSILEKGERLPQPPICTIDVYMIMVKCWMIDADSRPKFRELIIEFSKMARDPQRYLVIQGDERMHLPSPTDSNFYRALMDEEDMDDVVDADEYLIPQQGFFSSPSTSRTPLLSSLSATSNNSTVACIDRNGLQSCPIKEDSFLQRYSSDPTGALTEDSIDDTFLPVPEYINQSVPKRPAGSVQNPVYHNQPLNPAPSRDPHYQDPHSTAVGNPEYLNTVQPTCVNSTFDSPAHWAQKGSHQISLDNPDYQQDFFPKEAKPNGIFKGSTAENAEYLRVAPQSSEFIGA

IC50 [1] [µM]	IC50 [2] [µM]	IC50 (EGFR-L858R/T790M) [nM]	IC50 (Wild type EGFR) [nM]	melting point [°C]	solubility [3] [µg/mL]	SMILES
0.165	2.35	0.6	2.8	292.9 to 293.4	< 10	C=CC(=O)Nc1cccc(-n2c(=O)c(-c3ccccc3)nc3cnc(Nc4cc(C)c(N5CCN(C)CC5)cc4OC)nc32)c1 [Compound 38, N-(3-(2-((2-methoxy-5-methyl-4-(4-methyl-1-piperazinyl)phenyl)amino)-7-oxo-6-phenyl-8(7H)pteridinonyl)phenyl)acrylamide]
0.228	1.2	1.7	1.6	> 300	< 10	C=CC(=O)Nc1cccc(-n2c(=O)c(-c3ccc(F)c(F)c3)nc3cnc(Nc4ccc(N5CCN(C)CC5)cc4OC)nc32)c1 [Compound 56, N-(3-(6-(3,4-difluorophenyl)-2-((2-methoxy-4-(4-methyl-1-piperazinyl)phenyl)amino)-7-oxo-8(7H)pteridinyl)phenyl)acrylamide]
0.831	> 10	896	86.7	215.5 to 215.7	223 (≈ 470 µM)	C=CC(=O)N1CC[C@H](n2c(=O)cnc3cnc(Nc4ccc(N5CCN(C)CC5)c(C)c4)nc32)C1 [Compound 34, (S)-8-(1-acryloyl-3-pyrrolidinyl)-2-((3-methyl-4-(4-methyl-1-piperazinyl)phenyl)amino)-7(8H)pteridinone]
2.2	9.6	> 1000	> 1000	159.9 to 160.7	737 (≈ 1280 µM)	Cc1cc(Nc2ncc3nc(C(C)C)c(=O)n([C@H]4CCN(C(=O)/C=C/CN(C)C)C4)c3n2)ccc1N1CCN(C)CC1 [Compound 36, (S,E)-8-(1-(4-(dimethylamino)-2-butenoyl)3-pyrrolidinyl)-2-((3-methyl-4-(4-methyl-1-piperazinyl)phenyl)amino)-6-isopropyl-7(8H)pteridinone]
0.225	1.37	1.8	2.8	> 300	< 10	C=CC(=O)Nc1cccc(-n2c(=O)c(-c3cccc(OC)c3)nc3cnc(Nc4ccc(N5CCN(C)CC5)cc4OC)nc32)c1 [Compound 57, N-(3-(2-((2-methoxy-4-(4-methyl-1-piperazinyl)phenyl)amino)-6-(3-methoxyphenyl)-7-oxo-8(7H)pteridinyl)phenyl)acrylamide]
2.16	> 10	9	522	253.1 to 254	63.3 (≈ 101 µM)	COc1cc(N2CCN(C)CC2)ccc1Nc1ncc2nc(-c3ccccc3)c(=O)n([C@H]3CCN(C(=O)/C=C/CN(C)C)C3)c2n1 [Compound 31]
0.033	2.75	7.1	1.3	249 to 249.5	< 10	C=CC(=O)Nc1cccc(-n2c(=O)c(C(C)C)nc3cnc(Nc4ccc(N5CCN(C)CC5)c(OC)c4)nc32)c1 [Compound 32, N-(3-(6-isopropyl-2-((3-methoxy-4-(4-methyl-1-piperazinyl)phenyl)amino)-7-oxo-8(7H)pteridinyl)phenyl)acrylamide]
0.031	0.64	20.8	362	> 300	< 10	C=CC(=O)Nc1cccc(-n2c(=O)c(-c3ccccc3)nc3cnc(Nc4ccc(N5CCC(N6CCN(C)CC6)CC5)cc4OC)nc32)c1 [Compound 48, N-(3-(2-((2-methoxy-4-(4-(4-methyl-1-piperazinyl)piperidinyl)phenyl)amino)-7-oxo-6-phenyl-8(7H)pteridinyl)phenyl)acrylamide]
0.018	1.73	0.2	0.5	265 to 265.2	< 10	C=CC(=O)Nc1cccc(-n2c(=O)c(-c3ccccc3)nc3cnc(Nc4ccc(N5CCN(C)CC5)c(C)c4)nc32)c1 [Compound 47, N-(3-(2-((3-methyl-4-(4-methyl-1-piperazinyl)phenyl)amino)-7-oxy-6-phenyl-8(7H)pteridinyl)phenyl)acrylamide]
1.06	4.1	3.5	1.5	296.5 to 297.3	< 10	C=CC(=O)Nc1cccc(-n2c(=O)c(-c3ccc(OC)cc3)nc3cnc(Nc4ccc(N5CCN(C)CC5)cc4OC)nc32)c1 [Compound 54, N-(3-(2-((2-methoxy-4-(4-methyl-1-piperazinyl)phenyl)amino)-6-(4-methoxyphenyl)-7-oxo-8(7H)pteridinyl)phenyl)acrylamide]
0.003	0.328	47.5	528	264.7 to 265.5	< 10	C=CC(=O)Nc1cccc(-n2c(=O)c(-c3ccccc3)nc3cnc(Nc4ccc(N5CCN(C)CC5)c(OC)c4)nc32)c1 [Compound 42, N-(3-(2-((3-methoxy-4-(4-methyl-1-piperazinyl)phenyl)amino)-7-oxo-6-phenyl-8(7H)pteridinyl)phenyl)acrylamide]
5.34	2.06	251	16.6	235.5 to 235.7	< 10	COc1cc(N2CCN(C)CC2)ccc1Nc1ncc2nc(-c3ccccc3)c(=O)n(-c3cccc(N)c3)c2n1 [Compound 51, 8-(3-aminophenyl)-2-((2-methoxy-4-(4-methyl-1-piperazinyl)phenyl)amino)-6-phenyl-7(8H)pteridinone]
8.69	> 10	> 1000	> 1000	157.3 to 157.6	> 10	COc1cc(N2CCN(C)CC2)ccc1Nc1ncc2ncc(=O)n(C3CCN(C(=O)/C=C/CN(C)C)CC3)c2n1 [Compound 30, (E)-8-(1-(4-(dimethylamino)-2-butenoyl)-4-piperidinyl)-2-((2-methoxy-4-(4-methyl-1-piperazinyl)phenyl)amino)-7(8H)pteridinone]
1.78	4.28	> 1000	> 1000	134.9 to 135.1	< 10	C=CC(=O)N1CCC[C@@H](n2c(=O)c(-c3ccccc3)nc3cnc(Nc4ccc(N5CCN(C)CC5)cc4OC)nc32)C1 [Compound 45, (R)-8-(1-acryloyl-3-piperidinyl)-2-((2-methoxy-4-(4-methyl-1-piperazinyl)phenyl)amino)-6-phenyl-7(8H)pteridinone]
